These results are taken from patent US9181235B2, “Substituted pyridines for modulating the WNT signaling pathway” (NOVARTIS AG, priority 2010, dated 2015).

System in the first data set: not listed separately
Kind of data set: Comparative stability in simulated gastric fluid (SGF), degradation by LCMS. Type of data set: physicochemical. Conditions: 50° C. SGF, 4 hr, LCMS UV peak areas at 254 nm. How it is done:
The stability of exemplified compounds of the invention were compared with N-(hetero)aryl, 2-(heteroy)aryl-substituted acetamides. Test compounds were dissolved or suspended in a specified media (e.g. simulated gastric fluid (SGF)). The resulting solution or suspension was kept at the testing temperature (e.g. 50° C.) for a given time (e.g. 4 hours), and the extent of degradation was quantified by LCMS using the respective UV absorption peak areas at 254 nm.
Take `Cc1cc(-c2ncc(CNC(=O)c3ccc(-c4cnccn4)cn3)cc2F)ccn1` [drawing 199]: the “% degradn. @ 4 hr” value is given as approximately 0%.

For the molecule `O=C(Cc1ccc(-c2ccnnc2)c(C(F)(F)F)c1)Nc1ccc(-c2cccnn2)cn1` [reference compound], the “% degradn. @ 4 hr” value is listed as 11.5%.

The same data set, now with this note: 50° C. SGF, 8 hr, LCMS UV peak areas at 254 nm.
As for `Cc1cc(-c2ncc(CNC(=O)c3ccc(-c4cnccn4)cn3)cc2F)ccn1` [drawing 199], the “% degradn. @ 8 hr” value is given as approximately 0. %.

With `O=C(Cc1ccc(-c2ccnnc2)c(C(F)(F)F)c1)Nc1ccc(-c2cccnn2)cn1` [reference compound], the “% degradn. @ 8 hr” value is 16.6%.

Staying with this data set, now noted: 50° C. SGF, 24 hr, LCMS UV peak areas at 254 nm.
As for `Cc1cc(-c2ncc(CNC(=O)c3ccc(-c4cnccn4)cn3)cc2F)ccn1` [drawing 199], the “% degradn. @ 24 hr” value is on record as approximately 0%.

As to `Cc1cc(CNC(=O)c2ccc(-c3cnccn3)cn2)cnc1-c1ccnc(C(F)(F)F)c1` [drawing 200], the “% degradn. @ 24 hr” value is reported as approximately 0%.

As for `O=C(Cc1ccc(-c2ccnnc2)c(C(F)(F)F)c1)Nc1ccc(-c2cccnn2)cn1` [reference compound], the “% degradn. @ 24 hr” value is on record as 26.7%.

For `Cc1cc(CC(=O)Nc2ccc(-c3cccc(F)c3)cn2)cnc1-c1ccnnc1` [reference compound], the “% degradn. @ 24 hr” value is listed as 25.0%.

Another data set concerns Wnt signaling. Kind of data set: Wnt-Luc reporter assay for pathway inhibition of Wnt signaling. Type of data set: cell-based, mouse (TM3 Wnt-Luc) or human (293 Wnt-Luc); not stated which. Conditions: Table 2; Wnt-Luc reporter cells co-cultured with L-cell Wnt3a cells, 24 hours. An outline of the steps: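 Stable STF (Wnt-responsive luciferase) reporter lines, mouse TM3 or human HEK293, co-cultured with Wnt3a-producing L-cells in DMEM with 2% FBS and treated with compound for 24 h. Firefly luciferase read by Bright-Glo; IC50 taken as concentration giving 50% reduction in luminescence.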
On the technique in general: In a reporter assay the amount or activity of a reporter protein is the signal.
Broadly, the IC50 is the concentration needed to halve the response being measured. The molecule `Cc1cc(C(=O)NCc2cnc(-c3ccnc(C(F)(F)F)c3)c(C)c2)ncc1-c1ncccc1C` [compound 96] registered an IC50 of more than 2000 nM.

`Cc1cc(-c2ncc(CNC(=O)c3cc(C)c(-c4cccc(F)c4)cn3)cc2C)ccn1` [compound 97] showed an IC50 of more than 1800 nM.

`Cc1cc(C(=O)NCc2cnc(-c3ccnc(C(F)(F)F)c3)c(C)c2)ncc1-c1cccnc1C` [compound 98]: the IC50 was more than 1200 nM.

Turning to `Cc1cc(C(=O)NCc2cnc(-c3ccnc(C(F)(F)F)c3)c(C)c2)ncc1-c1cccc(F)c1C` [compound 99], the IC50 stood at 1100 nM.

Turning to `CC(=O)N1CCN(c2ccc(C(=O)NCc3ccc(-c4ccnnc4)cc3)cc2)CC1` [compound 100], the IC50 was more than 20000 nM.

Staying with this data set, now noted: Wnt-Luc reporter cells co-cultured with L-cell Wnt3a cells, 24 hours, luciferase signal reduced by 50%.
Molecule `Cc1cccnc1-c1ccc(C(=O)NCc2cnc(-c3ccnc(C(F)(F)F)c3)c(C)c2)nc1` [compound 74, N-({5-methyl-6-[2-(trifluoromethyl)pyridin-4-yl]pyridin-3-yl}methyl)-5-(3-methylpyridin-2-yl)pyridine-2-carboxamide] came in with a half-maximal inhibitory concentration (IC50) of 32 nM.

`Cc1cc(-c2ncc(CNC(=O)c3ccc(-c4ncccc4C)cn3)cc2F)ccn1` [compound 75, N-{[5-fluoro-6-(2-methylpyridin-4-yl)pyridin-3-yl]methyl}-5-(3-methylpyridin-2-yl)pyridine-2-carboxamide] showed an IC50 of 6.9 nM.

`Cc1cc(-c2ncc(CNC(=O)c3ccc(-c4cc(F)ccc4C)cn3)cc2F)ccn1` [compound 76, 5-(5-fluoro-2-methylphenyl)-N-{[5-fluoro-6-(2-methylpyridin-4-yl)pyridin-3-yl]methyl}pyridine-2-carboxamide]: the IC50 turned out to be 1.2 nM.

In turn, `Cc1ccc(F)cc1-c1ccc(C(=O)NCc2cnc(-c3ccnc(C(F)(F)F)c3)c(C)c2)nc1` [compound 77, 5-(5-fluoro-2-methylphenyl)-N-({5-methyl-6-[2-(trifluoromethyl)pyridin-4-yl]pyridin-3-yl}methyl)pyridine-2-carboxamide] yielded a concentration for half-maximal inhibition (IC50) of 6.3 nM.

As to `Cc1cc(C(=O)NCc2cnc(-c3ccnc(C(F)(F)F)c3)c(C)c2)ccc1-c1cnccn1` [compound 78, 3-methyl-N-({5-methyl-6-[2-(trifluoromethyl)pyridin-4-yl]pyridin-3-yl}methyl)-4-(pyrazin-2-yl)benzamide], the IC50 came to 13 nM.

Molecule `Cc1cc(C(=O)NCc2cnc(-c3ccnc(C(F)(F)F)c3)c(C)c2)ncc1-c1cnccn1` [compound 79, 4-methyl-N-({5-methyl-6-[2-(trifluoromethyl)pyridin-4-yl]pyridin-3-yl}methyl)-5-(pyrazin-2-yl)pyridine-2-carboxamide] displayed a half-inhibitory concentration (IC50) of 982 nM.

Consider `Cc1cc(-c2ncc(CNC(=O)c3ccc(-c4cc(F)ccc4C)cn3)cc2C)ccn1` [compound 80, 5-(5-fluoro-2-methylphenyl)-N-{[5-methyl-6-(2-methylpyridin-4-yl)pyridin-3-yl]methyl}pyridine-2-carboxamide], for which half-maximal inhibition (IC50) was put at 4.2 nM.

For `Cc1cc(-c2cnc(CNC(=O)c3ccc(-c4cnccn4)cn3)c(C)c2)ccn1` [compound 81, N-((2′,5-dimethyl-3,4′-bipyridin-6-yl)methyl)-5-(pyrazin-2-yl)picolinamide], half-maximal inhibition (IC50) was put at 20 nM.

Turning to `Cc1cc(C(=O)NCc2cnc(-c3ccnc(C(F)(F)F)c3)c(C)c2)ncc1-c1cc(F)ccc1C` [compound 82, 5-(5-fluoro-2-methylphenyl)-4-methyl-N-({5-methyl-6-[2-(trifluoromethyl)pyridin-4-yl]pyridin-3-yl}methyl)pyridine-2-carboxamide], inhibition was half-maximal at 441 nM (IC50).

The molecule `Cc1cc(C(=O)NCc2cnc(-c3ccnc(C(F)(F)F)c3)c(C)c2)ncc1-c1cccc(F)c1` [compound 83, 5-(3-fluorophenyl)-4-methyl-N-({5-methyl-6-[2-(trifluoromethyl)pyridin-4-yl]pyridin-3-yl}methyl)pyridine-2-carboxamide] came in with an IC50 of 812 nM.

`CC(=O)N1CCN(c2ccc(C(=O)NCc3cnc(-c4ccnc(C(F)(F)F)c4)c(F)c3)nc2)CC1` [compound 84, 5-(4-Acetylpiperazin-1-yl)-N-((3-fluoro-2′-(trifluoromethyl)-2,4′-bipyridin-5-yl)methyl)picolinamide] had an IC50 of 2.7 nM.

On to `O=C(NCc1cnc(-c2ccnc(C(F)(F)F)c2)c(F)c1)c1ccc(-c2cnccn2)cn1` [compound 85, N-({5-fluoro-6-[2-(trifluoromethyl)pyridin-4-yl]pyridin-3-yl}methyl)-5-(pyrazin-2-yl)pyridine-2-carboxamide], for which the half-inhibitory concentration (IC50) is 0.22 nM.

Regarding `Cc1cc(-c2cnc(CNC(=O)c3ccc(-c4cnccn4)cn3)cc2C)ccn1` [compound 86, N-{[4-methyl-5-(2-methylpyridin-4-yl)pyridin-2-yl]methyl}-5-(pyrazin-2-yl)pyridine-2-carboxamide], the 50% inhibitory concentration (IC50) came out at 17 nM. Against the preceding molecule, the IC50 is about 77-fold higher.

Molecule `Cc1cc(-c2cnccn2)cnc1C(=O)NCc1ccc(-c2ccnc(C(F)(F)F)c2)nc1` [compound 87, 3-methyl-5-(pyrazin-2-yl)-N-({6-[2-(trifluoromethyl)pyridin-4-yl]pyridin-3-yl}methyl)pyridine-2-carboxamide] returned an IC50 of 16 nM.

In turn, `Cc1cc(-c2ncc(CNC(=O)c3ccn(-c4cccc(F)c4)c(=O)c3)cc2C)ccn1` [compound 88, 1-(3-fluorophenyl)-N-{[5-methyl-6-(2-methylpyridin-4-yl)pyridin-3-yl]methyl}-2-oxo-1,2-dihydropyridine-4-carboxamide] had an IC50 of 4.4 nM.

In turn, `Cc1cc(-c2ccc(CNC(=O)c3ccn(-c4cccc(F)c4)c(=O)c3)cn2)ccn1` [compound 89, 1-(3-Fluorophenyl)-N-((2′-methyl-[2,4′-bipyridin]-5-yl)methyl)-2-oxo-1,2-dihydropyridine-4-carboxamide] yielded an IC50 of 12.5 nM.

`Cc1cc(CNC(=O)c2ccn(-c3cccc(F)c3)c(=O)c2)cnc1-c1ccnc(C(F)(F)F)c1` [compound 90, 1-(3-fluorophenyl)-N-({5-methyl-6-[2-(trifluoromethyl)pyridin-4-yl]pyridin-3-yl}methyl)-2-oxo-1,2-dihydropyridine-4-carboxamide]: half-maximal inhibition (IC50) was put at 6.6 nM. Against the preceding molecule, the IC50 is about 1.9-fold lower.

`Cc1cc(-n2ccc(CNC(=O)c3ccc(-c4cccc(F)c4)cn3)cc2=O)ccn1` [compound 91, 5-(3-fluorophenyl)-N-{[1-(2-methylpyridin-4-yl)-2-oxo-1,2-dihydropyridin-4-yl]methyl}pyridine-2-carboxamide] registered a half-inhibitory concentration (IC50) of 3.8 nM.

`Cc1cn(-c2ccc(CNC(=O)c3ccc(-c4ccccc4)cc3)cc2)cn1` [compound 92, N-(4-(4-methyl-1H-imidazol-1-yl)benzyl)biphenyl-4-carboxamide] registered a 50% inhibitory concentration (IC50) of 0.5 nM. Against the preceding molecule, the IC50 is about 7.6-fold lower.

With `O=C(NCC1CCN(C(=O)c2ccnc(F)c2)CC1)c1ccc(-c2cccc(F)c2)nc1` [compound 93, N-((1-(2-Fluoroisonicotinoyl)piperidin-4-yl)methyl)-6-(3-fluorophenyl)nicotinamide], the half-maximal inhibitory concentration (IC50) stood at 92 nM.

As for `O=C(NCC1CN(C(=O)c2ccnc(F)c2)C1)c1ccc(-c2cccc(F)c2)nc1` [compound 94, 6-(3-fluorophenyl)-N-({1-[(2-fluoropyridin-4-yl)carbonyl]azetidin-3-yl}methyl)pyridine-3-carboxamide], the IC50 was found to be 290 nM.

`Cc1cc(-c2ccc(CNC(=O)c3ccc(Oc4ccccc4)nc3)cn2)ccn1` [compound 95, N-((2′-methyl-[2,4′-bipyridin]-5-yl)methyl)-6-phenoxynicotinamide] came in with a 50% inhibitory concentration (IC50) of 420 nM.
